Measurements taken from PMC10364322, “Evaluation of chronic drug-induced electrophysiological and cytotoxic effects using human-induced pluripotent stem cell-derived cardiomyocytes (hiPSC-CMs)” (Frontiers in Pharmacology, 2023).
Like-named read-outs stand apart in the source and are kept apart here.

System: hiPSC-CMs (iCell-Cardiomyocytes^2)
Summary of the method: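 Spontaneous field potentials and impedance recorded by MEA at 37°C, 5% CO2 in hiPSC-CM monolayers (50 K/well, fibronectin-coated), 5-min baseline before compound; final DMSO 0.1%. Values are percent change from baseline, mean ± SD, compared with DMSO by Wilcoxon-Mann Whitney, interpreted against DMSO tolerance intervals.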

COc1cccc2c1C(=O)c1c(O)c3c(c(O)c1C2=O)C[C@@](O)(C(=O)CO)C[C@@H]3O[C@H]1C[C@H](N)[C@H](O)[C@H](C)O1 [Doxorubicin]
BR (beating rate), % change from baseline (0.1 µM, 2h): 7±3%
Beating below threshold, number of observations/total well numbers (0.1 µM, 2h): 0/5
Cessation of beating, number of observations/total well numbers (0.1 µM, 2h): 0/5
EAD, number of observations/total well numbers (0.1 µM, 2h): 0/5
FPD (field-potential duration), % change from baseline (0.1 µM, 2h): -0.9±3.5%
FPDc (field-potential duration corrected by beat-rate), % change from baseline (0.1 µM, 2h): 1.2±2.7%
Flat T-wave-like, number of observations/total well numbers (0.1 µM, 2h): 0/5
BR (beating rate), % change from baseline (0.1 µM, 24h): 41±12 %
Beating below threshold, number of observations/total well numbers (0.1 µM, 24h): 0/5
Cessation of beating, number of observations/total well numbers (0.1 µM, 24h): 0/5
EAD, number of observations/total well numbers (0.1 µM, 24h): 0/5
FPD (field-potential duration), % change from baseline (0.1 µM, 24h): -18.2±8.6 %
FPDc (field-potential duration corrected by beat-rate), % change from baseline (0.1 µM, 24h): -8.8±6.9 %
Flat T-wave-like, number of observations/total well numbers (0.1 µM, 24h): 0/5
BR (beating rate), % change from baseline (0.1 µM, 48h): 26±8 %
Beating below threshold, number of observations/total well numbers (0.1 µM, 48h): 0/5
Cessation of beating, number of observations/total well numbers (0.1 µM, 48h): 0/5
EAD, number of observations/total well numbers (0.1 µM, 48h): 0/5
FPD (field-potential duration), % change from baseline (0.1 µM, 48h): -24.4±9.8 %
FPDc (field-potential duration corrected by beat-rate), % change from baseline (0.1 µM, 48h): -18.8±8.7 %
Flat T-wave-like, number of observations/total well numbers (0.1 µM, 48h): 0/5
BR (beating rate), % change from baseline (0.1 µM, 72h): 22±6 %
Beating below threshold, number of observations/total well numbers (0.1 µM, 72h): 0/5
Cessation of beating, number of observations/total well numbers (0.1 µM, 72h): 0/5
EAD, number of observations/total well numbers (0.1 µM, 72h): 0/5
FPD (field-potential duration), % change from baseline (0.1 µM, 72h): -25±8.7 %
FPDc (field-potential duration corrected by beat-rate), % change from baseline (0.1 µM, 72h): -20.4±8.9 %
Flat T-wave-like, number of observations/total well numbers (0.1 µM, 72h): 1/5
BR (beating rate), % change from baseline (0.1 µM, 96h): -7±13%
Beating below threshold, number of observations/total well numbers (0.1 µM, 96h): 0/5
Cessation of beating, number of observations/total well numbers (0.1 µM, 96h): 0/5
EAD, number of observations/total well numbers (0.1 µM, 96h): 0/5
FPD (field-potential duration), % change from baseline (0.1 µM, 96h): -11.7±0.4 %
FPDc (field-potential duration corrected by beat-rate), % change from baseline (0.1 µM, 96h): -16.2±0.1 %
Flat T-wave-like, number of observations/total well numbers (0.1 µM, 96h): 3/5
time point from which cessation of beating occurred in all wells (0.3 µM): 48 h
BR (beating rate), % change from baseline (0.3 µM, 2h): 2±2%
Beating below threshold, number of observations/total well numbers (0.3 µM, 2h): 0/5
Cessation of beating, number of observations/total well numbers (0.3 µM, 2h): 0/5
EAD, number of observations/total well numbers (0.3 µM, 2h): 0/5
FPD (field-potential duration), % change from baseline (0.3 µM, 2h): 2.2±0.8%
FPDc (field-potential duration corrected by beat-rate), % change from baseline (0.3 µM, 2h): 2.8±1.1%
Flat T-wave-like, number of observations/total well numbers (0.3 µM, 2h): 0/5
BR (beating rate), % change from baseline (0.3 µM, 24h): 24±8 %
Beating below threshold, number of observations/total well numbers (0.3 µM, 24h): 0/5
Cessation of beating, number of observations/total well numbers (0.3 µM, 24h): 0/5
EAD, number of observations/total well numbers (0.3 µM, 24h): 0/5
FPD (field-potential duration), % change from baseline (0.3 µM, 24h): -21±2.9 %
FPDc (field-potential duration corrected by beat-rate), % change from baseline (0.3 µM, 24h): -14.6±1.7 %
Flat T-wave-like, number of observations/total well numbers (0.3 µM, 24h): 2/5
BR (beating rate), % change from baseline (0.3 µM, 48h): 40±8 %
Beating below threshold, number of observations/total well numbers (0.3 µM, 48h): 0/5
Cessation of beating, number of observations/total well numbers (0.3 µM, 48h): 2/5
EAD, number of observations/total well numbers (0.3 µM, 48h): 0/5
Flat T-wave-like, number of observations/total well numbers (0.3 µM, 48h): 3/5
BR (beating rate), % change from baseline (0.3 µM, 72h): 39±0 %
Beating below threshold, number of observations/total well numbers (0.3 µM, 72h): 0/5
Cessation of beating, number of observations/total well numbers (0.3 µM, 72h): 4/5
EAD, number of observations/total well numbers (0.3 µM, 72h): 0/5
Flat T-wave-like, number of observations/total well numbers (0.3 µM, 72h): 1/5
Beating below threshold, number of observations/total well numbers (0.3 µM, 96h): 0/5
Cessation of beating, number of observations/total well numbers (0.3 µM, 96h): 5/5
EAD, number of observations/total well numbers (0.3 µM, 96h): 0/5
Flat T-wave-like, number of observations/total well numbers (0.3 µM, 96h): 0/5
time point from which cessation of beating occurred in all wells (1 µM): 48 h
BR (beating rate), % change from baseline (1 µM, 2h): 3±2%
Beating below threshold, number of observations/total well numbers (1 µM, 2h): 0/5
Cessation of beating, number of observations/total well numbers (1 µM, 2h): 0/5
EAD, number of observations/total well numbers (1 µM, 2h): 0/5
FPD (field-potential duration), % change from baseline (1 µM, 2h): 2.8±3.4%
FPDc (field-potential duration corrected by beat-rate), % change from baseline (1 µM, 2h): 4.2±3%
Flat T-wave-like, number of observations/total well numbers (1 µM, 2h): 0/5
BR (beating rate), % change from baseline (1 µM, 24h): 68±21 %
Beating below threshold, number of observations/total well numbers (1 µM, 24h): 0/5
Cessation of beating, number of observations/total well numbers (1 µM, 24h): 0/5
EAD, number of observations/total well numbers (1 µM, 24h): 0/5
Flat T-wave-like, number of observations/total well numbers (1 µM, 24h): 4/5
Beating below threshold, number of observations/total well numbers (1 µM, 48h): 0/5
Cessation of beating, number of observations/total well numbers (1 µM, 48h): 5/5
EAD, number of observations/total well numbers (1 µM, 48h): 0/5
Flat T-wave-like, number of observations/total well numbers (1 µM, 48h): 0/5
Beating below threshold, number of observations/total well numbers (1 µM, 72h): 0/5
Cessation of beating, number of observations/total well numbers (1 µM, 72h): 5/5
EAD, number of observations/total well numbers (1 µM, 72h): 0/5
Flat T-wave-like, number of observations/total well numbers (1 µM, 72h): 0/5
Beating below threshold, number of observations/total well numbers (1 µM, 96h): 0/5
Cessation of beating, number of observations/total well numbers (1 µM, 96h): 5/5
EAD, number of observations/total well numbers (1 µM, 96h): 0/5
Flat T-wave-like, number of observations/total well numbers (1 µM, 96h): 0/5
time point from which cessation of beating occurred in all wells (3 µM): 24 h
Beating below threshold, number of observations/total well numbers (3 µM, 72h): 0/5
Cessation of beating, number of observations/total well numbers (3 µM, 72h): 5/5
EAD, number of observations/total well numbers (3 µM, 72h): 0/5
Flat T-wave-like, number of observations/total well numbers (3 µM, 72h): 0/5
Beating below threshold, number of observations/total well numbers (3 µM, 96h): 0/5
Cessation of beating, number of observations/total well numbers (3 µM, 96h): 5/5
EAD, number of observations/total well numbers (3 µM, 96h): 0/5
Flat T-wave-like, number of observations/total well numbers (3 µM, 96h): 0/5
BR (beating rate), % change from baseline (3 µM, 2h): 1±2%
Beating below threshold, number of observations/total well numbers (3 µM, 2h): 0/5
Cessation of beating, number of observations/total well numbers (3 µM, 2h): 0/5
EAD, number of observations/total well numbers (3 µM, 2h): 0/5
FPD (field-potential duration), % change from baseline (3 µM, 2h): 3.9±2.4%
FPDc (field-potential duration corrected by beat-rate), % change from baseline (3 µM, 2h): 4.3±2.4%
Flat T-wave-like, number of observations/total well numbers (3 µM, 2h): 0/5
BR (beating rate), % change from baseline (3 µM, 24h): 41±36 %
Beating below threshold, number of observations/total well numbers (3 µM, 24h): 0/5
Cessation of beating, number of observations/total well numbers (3 µM, 24h): 1/5
EAD, number of observations/total well numbers (3 µM, 24h): 0/5
FPD (field-potential duration), % change from baseline (3 µM, 24h): -15.8±3.8 %
FPDc (field-potential duration corrected by beat-rate), % change from baseline (3 µM, 24h): -2.9±4.7 %
Flat T-wave-like, number of observations/total well numbers (3 µM, 24h): 2/5
Beating below threshold, number of observations/total well numbers (3 µM, 48h): 0/5
Cessation of beating, number of observations/total well numbers (3 µM, 48h): 5/5
EAD, number of observations/total well numbers (3 µM, 48h): 0/5
Flat T-wave-like, number of observations/total well numbers (3 µM, 48h): 0/5
